For 26 molecules, IC50 results are on record in patent publication US8735584B2 (Merck Patent GmbH, priority 2008, dated 2014).

SMILES strings stand for the structures.

The test has as its target T1, GST-Aurora A (Homo sapiens, UniProt O14965).
T1 construct: N-terminal GST fusion with full length Aurora A (1-403 amino acids); purchased Carna Biosciences 05-101
T1 sequence (O14965 1-403): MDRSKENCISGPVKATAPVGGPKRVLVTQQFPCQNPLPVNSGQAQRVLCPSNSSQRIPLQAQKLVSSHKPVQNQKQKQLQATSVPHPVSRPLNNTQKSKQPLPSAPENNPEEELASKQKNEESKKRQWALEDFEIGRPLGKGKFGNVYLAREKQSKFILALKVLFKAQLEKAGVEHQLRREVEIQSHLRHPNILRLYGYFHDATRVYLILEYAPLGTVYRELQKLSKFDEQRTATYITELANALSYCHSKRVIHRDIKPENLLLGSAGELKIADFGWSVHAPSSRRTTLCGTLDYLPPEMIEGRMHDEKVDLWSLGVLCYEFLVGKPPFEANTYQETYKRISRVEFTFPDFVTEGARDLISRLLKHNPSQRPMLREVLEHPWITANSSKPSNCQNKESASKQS
In words: Aurora A IC50, Caliper LC3000 mobility shift assay. It is filed as biochemical. The conditions noted are these: LC3000 method; 15 uM ATP (the KM value); read-out: Aurora Kinase A Activity (IC50). The procedure: The Aurora assays described here are performed on two Caliper Life Sciences systems: the LC3000 and the Desktop Profiler. These provide data on enzyme activity via measurement of the relative amounts of phosphorylated or unphosphorylated fluorescently labelled substrate peptide at the end of an enzymatic reaction. These different states of peptide are resolved by applying a potential difference across the sample. The presence of the charged phosphate group on the product (as opposed to the substrate) causes a different peptide mobility between the two peptides. This is visualized by excitation of the fluorescent label on the substrate and product peptides and represented as peaks within the analysis software.
In order to measure inhibitor activity of Aurora A inhibitors in the Caliper Life Sciences LC3000, a TTP Mosquito liquid handling instrument is used to place 0.25 ul of the appropriate concentration of inhibitor in 100% DMSO (for a dose response curve calculation) into each well of a 384-well plate. To this reaction components are added to a final volume of 25 ul: • 0.067 ng/ul GST-Aurora A (Carna Biosciences 05-101. N-terminal GST fusion with full length Aurora A (1-403 amino acids), accession number NP 940835.1). • 15 uM ATP (Fluke, 02055) • 1 mM DTT (Sigma, D0632) • 1 mM MgCl2 (Sigma, M1028) • 1 uM substrate peptide (sequence FITC-LRRASLG-(CONH2), synthesized by Tufts Peptide Synthesis service. • 100 mM HEPES pH 7.5 (Calbiochem, 391338) • 0.015% Brij-35 (Sigma, B4184)
The reaction is incubated for 90 min at 25 C, and then stopped by the addition of 70 ul of Stop buffer (100 mM HEPES pH 7.5, 0.015% Brij-35, 10 mM EDTA (Sigma, E7889)).
The plate is read on a Caliper LC3000 in an Off-Chip mobility shift assay format, using the following parameters for a 12-sipper chip: screening pressure—1.8 psi, upstream voltage—2700, downstream voltage—1000. These conditions cause unphosphorylated substrate and phosphorylated product peptide to resolve as separate peaks allowing direct measurement of percentage of conversion of substrate to product. The percent conversion can be plotted against concentration of inhibitor to produce a sigmoidal dose response curve, from which an 1050 can be calculated using XLFit for Microsoft Excel.
In the desired wells of a 384-well plate, Aurora A (0.067 ng/ul) was incubated with 15 uM ATP (the KM value), 1 mM DTT, 1 mM MgCl2, and 1 uM peptide substrate (sequence FITC-LRRASLG-(CONH2), FITC=fluorescein isothiocyanate) in 100 mM HEPES pH 7.5 and 0.015% Brij-35 buffer. The reaction was incubated for 90 min at 25 C, and then stopped by the addition of 45 ul of Stop buffer (100 mM HEPES ph 7.5, 0.015% Brij-35, 10 mM EDTA).
The plate was read in a Caliper LC 3000 in an Off-Chip mobility shift assay format, using the following parameters: screening pressure—1.8 psi, upstream voltage—2700, downstream voltage—1000. These conditions cause unphosphorylated substrate peptide to resolve as a peak before that of the phosphorylated peptide product.
In the following table “+” means >100 nM, “++” means 11-100 nM, and “+++” means <11 nM.

For the molecule `O=C(Nc1ccc(Nc2ccnc3[nH]c(=O)c4ccc(Cl)cc4c23)cc1)c1ccccc1` [Compound 293, N-(4-(9-Chloro-6-oxo-5,6-dihydrobenzo[c][1,8]naphthyridin-1-ylamino)phenyl)benzamide], the IC50 is less than 11 nM. Take `CN1CCN(c2ccc3c(=O)[nH]c4nccc(Nc5ccc(NC(=O)c6ccccc6)cc5)c4c3c2)CC1` [Compound 294, N-(4-(9-(4-methylpiperazin-1-yl)-6-oxo-5,6-dihydrobenzo[c][1,8]naphthyridin-1-ylamino)phenyl)benzamide]: the IC50 lay in the range of 11 to 100 nM. Next, `CN(C)CCNC(=O)c1ccc2c(=O)[nH]c3nccc(Cl)c3c2c1` [Compound 296, 1-Chloro-N-(2-(dimethylamino)ethyl)-6-oxo-5,6-dihydrobenzo[c][1,8]naphthyridine-9-carboxamide]: more than 100 nM; `CN(C)CCNC(=O)c1ccc2c(=O)[nH]c3nccc(Nc4ccc(NC(=O)c5ccc(F)cc5C(F)(F)F)cc4)c3c2c1` [Compound 297, N-(2-(Dimethylamino)ethyl)-1-(4-(4-fluoro-2-(trifluoromethyl)benzamido)phenylamino)-6-oxo-5,6-dihydrobenzo[c][1,8]naphthyridine-9-carboxamide]: less than 11 nM. Consider `CN(C)CCNC(=O)c1ccc2c(=O)[nH]c3nccc(Nc4ccc(NC(=O)c5ccc(F)c(F)c5)cc4)c3c2c1` [Compound 298, 1-(4-(3,4-Difluorobenzamido)phenylamino)-N-(2-(dimethylamino)ethyl)-6-oxo-5,6-dihydrobenzo[c][1,8]naphthyridine-9-carboxamide], for which the half-inhibitory concentration (IC50) was less than 11 nM. Next, `O=C(Cc1ccc(Nc2ccnc3[nH]c(=O)c4ccccc4c23)cc1)Nc1ccccc1` [Compound 303, 2-(4-(6-Oxo-5,6-dihydrobenzo[c][1,8]naphthyridin-1-ylamino)phenyl)-N phenylacetamide]: 11 to 100 nM; `Cc1cc(Nc2ccnc3[nH]c(=O)c4ccccc4c23)n(CC(=O)Nc2ccccc2)n1` [Compound 308, 2-(3-Methyl-5-(6-oxo-5,6-dihydrobenzo[c][1,8]naphthyridin-1-ylamino)-1H-pyrazol-1-yl)-N-phenylacetamide]: more than 100 nM; `Cc1cc(Nc2ccnc3[nH]c(=O)c4ccccc4c23)n(CC(=O)Nc2ccc(F)c(F)c2)n1` [Compound 309, N-(3,4-difluorophenyl)-2-(3-methyl-5-(6-oxo-5,6-dihydrobenzo[c][1,8]naphthyridin-1-ylamino)-1H-pyrazol-1-yl)acetamide]: more than 100 nM. In the case of `O=C(Cc1cc(Nc2ccnc3[nH]c(=O)c4ccccc4c23)n[nH]1)Nc1ccc(F)c(F)c1` [Compound 313, N-(3,4-Difluorophenyl)-2-(3-(6-oxo-5,6-dihydrobenzo[c][1,8]naphthyridin-1-ylamino)-1H-pyrazol-5-yl)acetamide], the IC50 is more than 100 nM. Take `O=C(Cc1cc(Nc2ccnc3[nH]c(=O)c4ccccc4c23)n[nH]1)Nc1cccc(F)c1` [Compound 314, N-(3-Fluorophenyl)-2-(3-(6-oxo-5,6-dihydrobenzo[c][1,8]naphthyridin-1-ylamino)-1H-pyrazol-5-yl)acetamide]: the IC50 is more than 100 nM. Next, `O=C(Cc1cc(Nc2ccnc3[nH]c(=O)c4ccccc4c23)n[nH]1)Nc1ccccc1` [Compound 315, 2-(3-(6-Oxo-5,6-dihydrobenzo[c][1,8]naphthyridin-1-ylamino)-1H-pyrazol-5-yl)-N-phenylacetamide]: more than 100 nM; `O=C(Nc1ccccc1)c1ccc(Nc2ccnc3[nH]c(=O)c4ccccc4c23)cc1` [Compound 317, 4-(6-Oxo-5,6-dihydrobenzo[c][1,8]naphthyridin-1-ylamino)-N-phenylbenzamide]: more than 100 nM.

Take `O=C(Nc1ccc(Nc2ccnc3[nH]c(=O)c4ccccc4c23)cc1F)c1ccccc1` [Compound 320, N-(2-Fluoro-4-(6-oxo-5,6-dihydrobenzo[c][1,8]naphthyridin-1-ylamino)phenyl) benzamide]: the IC50 fell in the range of 11 to 100 nM.

`O=C(Nc1ccc(Nc2ccnc3[nH]c(=O)c4ccccc4c23)c(F)c1)c1ccccc1` [Compound 321, N-(3-Fluoro-4-(6-oxo-5,6-dihydrobenzo[c][1,8]naphthyridin-1-ylamino)phenyl)benzamide]: the IC50 was less than 11 nM. `Cc1cc(Nc2ccnc3[nH]c(=O)c4ccccc4c23)ccc1NC(=O)c1ccccc1` [Compound 322, N-(2-Methyl-4-(6-oxo-5,6-dihydrobenzo[c][1,8]naphthyridin-1-ylamino)phenyl)benzamide]: the IC50 was more than 100 nM.

As for `O=C(Nc1ccc(Nc2ccnc3[nH]c(=O)c4ccccc4c23)cn1)c1ccccc1` [Compound 324, N-(5-(6-Oxo-5,6-dihydrobenzo[c][1,8]naphthyridin-1-ylamino)pyridin-2-yl)benzamide], the IC50 was in the range of 11 to 100 nM. The value for `O=C(Nc1ccc(CNc2ccnc3[nH]c(=O)c4ccccc4c23)cc1)c1ccccc1` [Compound 325, N-(4-((6-Oxo-5,6-dihydrobenzo[c][1,8]naphthyridin-1-ylamino)methyl)phenyl)benzamide] was 11 to 100 nM.

As for `O=C(Nc1ccc(CNc2ccnc3[nH]c(=O)c4ccccc4c23)cc1)c1cc(F)cc(F)c1` [Compound 326, 3,5-Difluoro-N-(4-((6-oxo-5,6-dihydrobenzo[c][1,8]naphthyridin-1-ylamino)methyl)phenyl)benzamide], the IC50 was 11 to 100 nM. As to `O=C(NCc1ccc(Nc2ccnc3[nH]c(=O)c4ccccc4c23)cc1)c1ccccc1` [Compound 327, N-(4-(6-oxo-5,6-dihydrobenzo[c][1,8]naphthyridin-1-ylamino)benzyl)benzamide], the IC50 is 11 to 100 nM. Consider `O=c1[nH]c2nccc(Nc3ccc(OCc4ccccc4)cc3)c2c2ccccc12` [Compound 329, 1-(4-(Benzyloxy)phenylamino)benzo[c][1,8]naphthyridin-6(5H)-one], for which the IC50 was in the range of 11 to 100 nM. As to `O=c1[nH]c2nccc(Nc3ccc(OCc4cccc(F)c4)cc3)c2c2ccccc12` [Compound 330, 1-(4-(3-Fluorobenzyloxy)phenylamino)benzo[c][1,8]naphthyridin-6(5H)-one], the IC50 was in the range of 11 to 100 nM. Turning to `O=c1[nH]c2nccc(Nc3ccc4c(cnn4Cc4ccccc4)c3)c2c2ccccc12` [Compound 333, 1-(1-Benzyl-1H-indazol-5-ylamino)benzo[c][1,8]naphthyridin-6(5H)-one], the IC50 was 11 to 100 nM.

On to `Cn1ccc(-c2ccc(Nc3ccnc4[nH]c(=O)c5ccccc5c34)cc2)n1` [Compound 335, 1-(4-(1-Methyl-1H-pyrazol-3-yl)phenylamino)benzo[c][1,8]naphthyridin-6(5H)-one], for which the IC50 was more than 100 nM. Turning to `O=c1[nH]c2nccc(Nc3ccc(NS(=O)(=O)c4ccccc4)cc3)c2c2ccccc12` [Compound 341, N-(4-(6-Oxo-5,6-dihydrobenzo[c][1,8]naphthyridin-1-ylamino)phenyl)benzenesulfonamide], the IC50 is more than 100 nM. Regarding `CNC(=O)Nc1ccc(Nc2ccnc3[nH]c(=O)c4ccccc4c23)cc1` [Compound 342, 1-Methyl-3-(4-(6-oxo-5,6-dihydrobenzo[c][1,8]naphthyridin-1-ylamino)phenyl)urea], the IC50 fell in the range of 11 to 100 nM.

For the molecule `O=C(Nc1ccccc1)Nc1ccc(Nc2ccnc3[nH]c(=O)c4ccccc4c23)cc1` [Compound 343, 1-(4-(6-Oxo-5,6-dihydrobenzo[c][1,8]naphthyridin-1-ylamino)phenyl)-3-phenylurea], the IC50 is less than 11 nM.
